Laboratory results published in the CheMixHub viscosity set.

Experiment: xn = mol fraction of the nth substance listed

CC(=O)N(C)C + CCO
viscosity [mPa·s], 101 kPa
Conditions | 298.15 K | 303.15 K | 308.15 K | 313.15 K | 318.15 K
x1 = 0.0653 | – | 0.9549 | 0.8702 | 0.8052 | 0.7371
x1 = 0.0809 | – | 0.944 | – | – | –
x1 = 0.1358 | 0.9918 | 0.9129 | 0.8423 | 0.7795 | 0.716
x1 = 0.1399 | – | 0.915 | – | – | –
x1 = 0.2001 | – | 0.894 | – | – | –
x1 = 0.2123 | 0.9588 | 0.8868 | 0.8171 | 0.7631 | 0.7077
x1 = 0.2626 | – | 0.878 | – | – | –
x1 = 0.2954 | 0.9368 | 0.8691 | 0.8034 | 0.7509 | 0.6996
x1 = 0.3738 | – | 0.865 | – | – | –
x1 = 0.386 | 0.9289 | 0.8634 | 0.7995 | 0.751 | 0.6999
x1 = 0.4854 | 0.928 | 0.8622 | 0.8019 | 0.753 | 0.7022
x1 = 0.4935 | – | 0.861 | – | – | –
x1 = 0.5947 | 0.9232 | 0.8595 | 0.7991 | 0.7552 | 0.7034
x1 = 0.5953 | – | 0.862 | – | – | –
x1 = 0.6938 | – | 0.863 | – | – | –
x1 = 0.7155 | 0.9273 | 0.8639 | 0.8093 | – | 0.7108
x1 = 0.7965 | – | 0.865 | – | – | –
x1 = 0.8498 | 0.9421 | 0.8705 | 0.81 | – | 0.7156
x1 = 0.8971 | – | 0.867 | – | – | –

CCCCCCCC[n+]1ccn(C)c1.F[B-](F)(F)F + COC(C)=O
Conditions | viscosity [mPa·s]
298.15 K, 101 kPa, x1 = 0.7036 | 69.93

CCC1CCCCC1 + CCCCCCCC(=O)OCC
viscosity [mPa·s], 100 kPa
Conditions | x1 = 0.1001 | x1 = 0.2 | x1 = 0.3 | x1 = 0.3998 | x1 = 0.5 | x1 = 0.5997 | x1 = 0.7 | x1 = 0.8001 | x1 = 0.9
293.15 K | 1.446 | 1.359 | 1.278 | 1.201 | 1.128 | 1.058 | 0.992 | 0.929 | 0.877
298.15 K | 1.328 | 1.254 | 1.182 | 1.113 | 1.046 | 0.983 | 0.924 | 0.869 | 0.821
303.15 K | 1.224 | 1.156 | 1.09 | 1.03 | 0.971 | 0.916 | 0.862 | 0.812 | 0.768
308.15 K | 1.132 | 1.071 | 1.012 | 0.957 | 0.903 | 0.854 | 0.808 | 0.762 | 0.72
313.15 K | 1.039 | 0.985 | 0.932 | 0.882 | 0.835 | 0.792 | 0.749 | 0.709 | 0.674
318.15 K | 0.977 | 0.927 | 0.879 | 0.833 | 0.79 | 0.748 | 0.71 | 0.672 | 0.64
323.15 K | 0.902 | 0.856 | 0.812 | 0.771 | 0.733 | 0.696 | 0.661 | 0.625 | 0.595

CCCCCCCCCO + CCO
viscosity [mPa·s], 101 kPa
Conditions | 298.15 K | 308.15 K | 318.15 K
x2 = 0.05 | 8.632 | 6.193 | 4.473
x2 = 0.1 | 8.168 | 5.872 | 4.273
x2 = 0.15 | 7.706 | 5.558 | 4.073
x2 = 0.2 | 7.247 | 5.25 | 3.874
x2 = 0.25 | 6.791 | 4.945 | 3.675
x2 = 0.3 | 6.34 | 4.645 | 3.475
x2 = 0.35 | 5.893 | 4.347 | 3.275
x2 = 0.4 | 5.453 | 4.052 | 3.074
x2 = 0.45 | 5.019 | 3.759 | 2.871
x2 = 0.5 | 4.593 | 3.469 | 2.668
x2 = 0.55 | 4.176 | 3.182 | 2.465
x2 = 0.6 | 3.769 | 2.898 | 2.261
x2 = 0.65 | 3.375 | 2.619 | 2.059
x2 = 0.7 | 2.993 | 2.345 | 1.858
x2 = 0.75 | 2.627 | 2.078 | 1.66
x2 = 0.8 | – | 1.818 | 1.466
x2 = 0.85 | 1.946 | 1.569 | 1.277
x2 = 0.9 | 1.635 | 1.331 | 1.094
x2 = 0.95 | 1.346 | 1.108 | 0.9197

CCCCCCCCCO + CCCCO
viscosity [mPa·s]
Conditions | 293.15 K | 298.15 K | 308.15 K | 318.15 K
101 kPa, x2 = 0.05 | – | 8.644 | 6.182 | 4.486
101 kPa, x2 = 0.1 | – | 8.219 | 5.878 | 4.303
101 kPa, x2 = 0.15 | – | 7.816 | 5.598 | 4.121
101 kPa, x2 = 0.2 | – | 7.431 | 5.336 | 3.941
101 kPa, x2 = 0.25 | – | 7.062 | 5.089 | 3.764
101 kPa, x2 = 0.3 | – | 6.704 | 4.852 | 3.589
101 kPa, x2 = 0.35 | – | 6.356 | 4.623 | 3.418
101 kPa, x2 = 0.4 | – | 6.016 | 4.398 | 3.251
101 kPa, x2 = 0.45 | – | 5.681 | 4.177 | 3.088
101 kPa, x2 = 0.5 | – | 5.353 | 3.957 | 2.929
101 kPa, x2 = 0.55 | – | 5.029 | 3.738 | 2.774
101 kPa, x2 = 0.6 | – | 4.71 | 3.52 | 2.623
101 kPa, x2 = 0.65 | – | 4.397 | 3.303 | 2.477
101 kPa, x2 = 0.7 | – | 4.091 | 3.088 | 2.335
101 kPa, x2 = 0.75 | – | 3.793 | 2.877 | 2.198
101 kPa, x2 = 0.8 | – | 3.506 | 2.672 | 2.064
101 kPa, x2 = 0.85 | – | 3.234 | 2.476 | 1.933
101 kPa, x2 = 0.9 | – | 2.977 | 2.292 | 1.806
101 kPa, x2 = 0.95 | – | 2.742 | 2.125 | 1.681
101.33 kPa, x2 = 0.1608 | 9.868 | – | – | –
101.33 kPa, x2 = 0.2186 | – | 7.719 | – | –
101.33 kPa, x2 = 0.3832 | 7.621 | – | – | –
101.33 kPa, x2 = 0.4166 | – | 6.168 | – | –
101.33 kPa, x2 = 0.5129 | – | 5.48 | – | –
101.33 kPa, x2 = 0.5372 | 6.237 | – | – | –
101.33 kPa, x2 = 0.6368 | – | 4.634 | – | –
101.33 kPa, x2 = 0.6674 | 5.169 | – | – | –
101.33 kPa, x2 = 0.7995 | 4.296 | – | – | –
101.33 kPa, x2 = 0.8253 | – | 3.486 | – | –
101.33 kPa, x2 = 0.8991 | 3.529 | – | – | –
101.33 kPa, x2 = 0.9103 | – | 3.019 | – | –
